We go through 15 compounds from EP4772509A1, “KINESIN KIF18A INHIBITOR, AND APPLICATION THEREOF” (Shanghai Apeiron Therapeutics Company Limited, priority 2023, dated 2025).

The subject of test [1] is HT29 cells. The test can be described thus: CyQuant cell proliferation activity test. The class given is cell-based. To be noted: HT29 at 2000 cells per well, 3 days, 0.2% DMSO, XLFIT. How it is done:
Materials and Cells: HT29 cells were purchased from Nanjing Cobioer Biosciences Co., Ltd.; RPMI-1640 medium, fetal bovine serum, Trypsin-EDTA (0.25%), 96-well plates, and CyQuant reagents were purchased from ThermoFisher (USA); DMSO was purchased from SIGMA (USA).
Cell Culture: HT29 cells were cultured with RPMI-1640 containing 10% fetal bovine serum under the condition of 37°C and 5% CO2. Only cells in the logarithmic growth phase could be used for the test.
Cell Proliferation Activity Test: CyQuant reagent was used to detect the proliferation inhibitory activity of compounds on HT29 cells. The cell density was adjusted, and 100 µL per well was inoculated into a 96-well plate (HT29 at 2000 cells per well), then incubated overnight at 37°C and 5% CO2. Add compounds of various target concentrations (initial concentration of 3000 nM, 3-fold dilution, 9 concentration gradients), and make the DMSO content 0.2%. The cell plate was incubated at 37°C in 5% CO2 for 3 days. CyQuant reagent was added and incubated for 1 h. The plates were read by Envision, and IC50 was calculated using XLFIT.

For test [2], the target named is T1, Human KIF18A (amino acid sequence 1-417) (Homo sapiens, UniProt Q8NI77).
T1 construct: purchased Viva Biotech (Shanghai) Ltd
T1 sequence (Q8NI77 1-417): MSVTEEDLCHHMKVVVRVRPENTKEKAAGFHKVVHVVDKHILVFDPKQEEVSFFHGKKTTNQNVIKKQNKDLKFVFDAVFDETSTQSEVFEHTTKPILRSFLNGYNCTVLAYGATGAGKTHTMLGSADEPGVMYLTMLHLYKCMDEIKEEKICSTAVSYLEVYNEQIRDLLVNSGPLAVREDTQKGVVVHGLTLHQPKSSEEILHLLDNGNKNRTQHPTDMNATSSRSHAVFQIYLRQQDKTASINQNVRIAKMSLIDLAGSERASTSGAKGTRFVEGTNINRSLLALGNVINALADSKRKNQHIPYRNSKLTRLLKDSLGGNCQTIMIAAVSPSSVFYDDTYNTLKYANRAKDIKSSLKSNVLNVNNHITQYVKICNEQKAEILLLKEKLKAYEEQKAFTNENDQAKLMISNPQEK
Put plainly: Enzymatic activity test (ADP-Glo, microtubule-stimulated ATPase). The class given is biochemical. As to conditions: 60 µg/mL microtubules, 25 µM ATP, 2.5 nM KIF18A protein, 120 min at ambient temperature, chemiluminescence. The method, boiled down: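 Compounds (0-10 µM final, from 10 mM DMSO stock) were incubated 120 min at room temperature with 2.5 nM KIF18A 1-417, 25 µM ATP and 60 µg/mL microtubules. ATPase output was measured as ADP via ADP-Glo luminescence.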
(In general: In ADP-Glo the light output rises with the ADP produced.)

The subject of test [3] is OVCAR3 cells. The test can be described thus: Cell proliferation activity test (CyQUANT Direct). The class given is cell-based. To be noted: 3 days, 0.2% DMSO, CyQUANT fluorescence. In outline: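 OVCAR3 cells in RPMI-1640 with 10% FBS were seeded, then treated overnight later with compound at final 0–10 µM (0.2% DMSO) for 3 days at 37°C, 5% CO2. Proliferation was read as CyQUANT Direct fluorescence after 60 min at 37°C.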

Broadly, the IC50 is the concentration that gives 50% inhibition.

Where two headings read alike, the source gives them in different places. A value given as a limit tells only on which side of the number the result lay.

Take `Cc1cc2nc(n1)N1CCC(F)(F)C(C=CCC3CCN(CC3)c3cc(NS(=O)(=O)CCO)c4c(c3C(=O)N2)CCC4=O)C1` (single isomer, unassigned) [Example 2B, N-(1^4,1^4-difluoro-2^6-methyl-5^1,4-dioxo-5^2,5^3-dihydro-5^1H-3-aza-2(2,4)-pyrimidin-1(1,3),6(1,4)-dipiperidin-5(4,5)-indenoheterocyclonon-8-en-5^7-yl)-2-hydroxyethane-1-sulfonamide]: the half-inhibitory concentration (IC50) stood at 0.639 µM in test [1] (read-out: HT-29 IC50), 3550 nM in test [2] (read-out: KIF18A IC50) and 0.639 µM in test [3].

As to `Cc1cc2nc(n1)N1CCC(F)(F)C(/C=C/CC3CCN(CC3)c3cc(NS(=O)(=O)CCO)c4c(c3C(=O)N2)OCC4=O)C1` (stereo not drawn) [Example 14A, N-(1^4,1^4-difluoro-2^6-methyl-5^3,4-dioxo-5^2,5-dihydro-3-aza-2(2,4)-pyrimidin-1(1,3),6(1,4)-dipiperidin-5(7,6)-benzofurancyclononane-8-en-5^4-yl)-2-hydroxyethane-1-sulfonamide], the half-maximal inhibitory concentration (IC50) worked out at 0.837 µM in test [1] (Homo sapiens, HT-29, 72 h); 44 nM in test [2] (read-out: KIF18A IC50); 0.635 µM in test [3] (Homo sapiens, OVCAR-3, 72 h).

With “N-(1^4,1^4,5^1,5^1-tetrafluoro-2^6-methyl-4-dioxo-5^2,5^3-dihydro-5^1H-3-aza-2(2,4)-pyrimidin-1(1,3),6(1,4)-dipiperidin-5(4,5)-benzofurancyclononane-8-en-5^7-yl)-ethanesulfonamide [Example 20]”, the results for the concentration for half-maximal inhibition (IC50) in test [1] (read-out: HT-29 IC50), in test [2] (read-out: KIF18A IC50) and in test [3] were 0.069 µM, 410 nM and 0.057 µM, respectively.

With “N-((3^4Z, 7Z)-1^4,1^4-difluoro-2^6-methyl-3^1H-2(2,4)-pyrimidin-1(1,3),5(1,4)-dipiperidin-3(4,1)-triazole-4(1,2)-benzocyclooct-7-en-4^4-y 1)-2-hydroxyethane-1-sulfonamide [Example 81A]”, the half-inhibitory concentration (IC50) in test [1] (read-out: HT-29 IC50) came out at 0.023 µM; in test [2] (read-out: KIF18A IC50) it was 219 nM; in test [3], 0.022 µM.

In the case of “N-((1^3R,Z)-1^4,1^4-difluoro-5^1-hydroxy-2^6-methyl-4-oxo-5^2,5^3-dihydro-5^1H-3-aza-2(2,4)-pyrimidin-1(1,3),6(1,4)-dipiperi din-5(4,5)-indenoheterocyclonon-8-en-5^7-yl)-2-hydroxyethane-1-sulfonamide [Example 7]”, the half-inhibitory concentration (IC50) in test [1] (read-out: HT-29 IC50) came to 0.026 µM; in test [2] (read-out: KIF18A IC50), 51 nM; in test [3] it was 0.041 µM.

As for `Cc1cc2nc(n1)N1CCC(F)(F)C(/C=C\CC3CCN(CC3)c3cc(NS(=O)(=O)CCO)c4ccccc4c3C(=O)N2)C1` (single isomer, unassigned) [Example 1B, (cis)-N-(1^4,1^4-difluoro-2^6-methyl-4-oxo-3-aza-2(2,4)-pyrimidin-1(1,3),6(1,4)-dipiperidin-5(1,2)-naphthacyclonon-8-en-5^4-yl)-2-hydroxyethane-1-sulfonamide], the results for the 50% inhibitory concentration (IC50) in test [1] (read-out: HT-29 IC50), in test [2] (read-out: KIF18A IC50) and in test [3] were 0.022 µM, 220 nM and 0.022 µM, respectively.

As for `Cc1cc2nc(n1)N1CCC(F)(F)C(/C=C/CC3CCN(CC3)c3cc(NS(=O)(=O)CCO)c(C(=O)O)cc3-n3cc-2nn3)C1` (stereo not drawn) [Example 91, 1^4,1^4-difluoro-4^4-((2-hydroxyethyl)sulfonamido)-2^6-methyl-3^1H-2(2,4)-pyrimidin-1(1,3),5(1,4)-dipiperidin-3(4,1)-triaz ole-4(1,2)-benzocyclooct-7-en-4^5 carboxylic acid], the IC50 in test [1] (Homo sapiens, HT-29, 72 h) is greater than 3 µM; in test [2] (read-out: KIF18A IC50), 37 nM; in test [3] (Homo sapiens, OVCAR-3, 72 h) it was greater than 3 µM.

As for `COc1cc2nc(n1)N1CCC(F)(F)C(C=CCc3cccc(c3)-c3cc(NS(=O)(=O)CCO)ccc3C(=O)N2)C1` (stereo not drawn) [Example 54, N-(1^4,1^4-difluoro-2^6-methoxy-4-oxo-3-aza-2(2,4)-pyrimidin-1(1,3)-piperidin-5(1,2),6(1,3)-diphenylheterocyclonon-8-en-5^4-yl)-2-hydroxyethane-1-sulfonamide], the half-inhibitory concentration (IC50) in test [1] (Homo sapiens, HT-29, 72 h) was greater than 3 µM; in test [2] (KIF18A IC50 nM), 1560 nM; in test [3] (Homo sapiens, OVCAR-3, 72 h), 0.867 µM.

With `Cc1cc2nc(n1)N1CCC(F)(F)C(/C=C/CC3CCN(CC3)c3cc(NS(=O)(=O)CCO)c4c(c3C(=O)N2)CCNC4=O)C1` (stereo not drawn) [Example 17, N-(6^4,6^4-difluoro-5^6-methyl-2^1,3-dioxo-2^1,2^2,2^3,2^4-tetrahydro-4-aza-2(6,5)-isoquinoline-5(4,2)-pyrimidin-1(1,4),6(1,3)-dipiperidinylcyclononane-7-en-2^8-yl)-2-hydroxyethane-1-sulfonamide], the concentration for half-maximal inhibition (IC50) was found to be 0.105 µM in test [1] (Homo sapiens, HT-29, 72 h); 52 nM in test [2] (read-out: KIF18A IC50); 0.096 µM in test [3] (Homo sapiens, OVCAR-3, 72 h).

In the case of `COc1cc2nc(n1)N1CCC(F)(F)C(CCCc3ccc(cc3)-c3cc(NS(=O)(=O)CCO)ncc3C(=O)N2)C1` (single isomer, unassigned) [Example 56A, N-(1^4,1^4-difluoro-2^6-methoxy-4-oxo-3-aza-2(2,4)-pyrimidin-5(3,4)-pyridin-1(1,3)-piperidin-6(1,4)-benzoazacyclononane-5^6-yl)-2-hydroxyethane-1-sulfonamide], the IC50 in test [1] (Homo sapiens, HT-29, 72 h) was determined as 0.378 µM; in test [2] (read-out: KIF18A IC50), 41 nM; in test [3] (Homo sapiens, OVCAR-3, 72 h), 0.188 µM.

Consider `CC(=O)c1cc2c(cc1NS(=O)(=O)CCO)N1CCC(C/C=C/C3CN(CCC3(F)F)c3nc(C)cc(n3)-c3cn-2nn3)CC1` (racemic) [Example 88, N-((3^4Z,7E)-4^5-acetyl-1^4,1^4-difluoro-2^6-methyl-3^1H-2(2,4)-pyrimidin-1(1,3),5(1,4)-dipiperidin-3(4,1)-triazole-4(1,2)-benzocyclooct-7-en-4^4-yl)-2-hydroxyethane-1-sulfonamide], for which the IC50 is greater than 3 µM in test [1] (Homo sapiens, HT-29, 72 h); greater than 3000 nM in test [2] (read-out: KIF18A IC50); greater than 3 µM in test [3] (Homo sapiens, OVCAR-3, 72 h).

On to `Cc1cc2nc(n1)N1CCC(F)(F)C(/C=C\CC3CCN(CC3)c3cc(NS(=O)(=O)C(C)(C)CO)c4c(c3C(=O)N2)CCC4=O)C1` (stereo not drawn) [Example 12, (Z)-N-(1^4,1^4-difluoro-2^6-methyl-5^1,4-dioxo-5^2,5^3-dihydro-5^1hydro-3-aza-2(2,4)-pyrimidin-1(1,3),6(1,4)-dipiperidin-5(4, 5)-indenocyclonofin-8-en-5^7-yl)-1-hydroxy-2-methylpropane-2-sulfonamide], for which the IC50 in test [1] (Homo sapiens, HT-29, 72 h) was found to be 0.165 µM; in test [2] (read-out: KIF18A IC50), 172 nM; in test [3] (Homo sapiens, OVCAR-3, 72 h) it was 0.096 µM.

In the case of `Cc1cc2nc(n1)N1CCC(F)(F)C(C=CCC3CCN(CC3)c3cc(NS(=O)(=O)CCO)c4c(c3C(=O)N2)CCC4=O)C1` (single isomer, unassigned) [Example 2C, N-(1^4,1^4-difluoro-2^6-methyl-5^1,4-dioxo-5^2,5^3-dihydro-5^1H-3-aza-2(2,4)-pyrimidin-1(1,3),6(1,4)-dipiperidin-5(4,5)-indenoheterocyclonon-8-en-5^7-yl)-2-hydroxyethane-1-sulfonamide], the results for the IC50 in test [1] (read-out: HT-29 IC50), in test [2] (read-out: KIF18A IC50) and in test [3] were 0.025 µM, 43 nM and 0.025 µM, respectively.

Consider `Cc1cc2nc(n1)N1CCC(F)(F)C(C=CCC3=CC=C(S3)c3cc(NS(=O)(=O)CCO)ccc3C(=O)N2)C1` (single isomer, unassigned) [Example 57A, N-(1^4,1^4-difluoro-2^6-methyl-4-oxo-3-aza-2(2,4)-pyrimidin-1(1,3)-piperidin-6(2,5)-thiophene-5(1,2)-benzoazacyclon-8-en-5^4-yl)-2-hydroxyethane-1-sulfonamide], for which the concentration for half-maximal inhibition (IC50) in test [1] (Homo sapiens, HT-29, 72 h) is 0.039 µM; in test [2] (read-out: KIF18A IC50), 60 nM; in test [3] (Homo sapiens, OVCAR-3, 72 h) it was 0.114 µM.

Consider `Cc1cc2nc(n1)N1CCC(F)(F)C(C=CCC3CCN(CC3)c3cc(NS(=O)(=O)CCO)c4c(c3C(=O)N2)CCC4=O)C1` (single isomer, unassigned) [Example 2A, N-(1^4,1^4-difluoro-2^6-methyl-5^1,4-dioxo-5^2,5^3-dihydro-5^1H-3-aza-2(2,4)-pyrimidin-1(1,3),6(1,4)-dipiperidin-5(4,5)-indenoheterocyclonon-8-en-5^7-yl)-2-hydroxyethane-1-sulfonamide], for which the concentration for half-maximal inhibition (IC50) stood at 0.009 µM in test [1] (read-out: HT-29 IC50), 35 nM in test [2] (read-out: KIF18A IC50) and 0.008 µM in test [3].
